Read-outs that look alike come from different tables or passages of the source.
Tests used:
[1] = target: Ghrelin receptor (Homo sapiens, UniProt Q92847); assay: Receptor Selection and Amplification Technology (R-SAT) assay; format: cell-based; design: expressed in transfected cells; host or cells: NIH3T3; conditions: for IC50: '—' not defined (nd used separately), read-out: RSAT pIC50 (converted); for Emax: read-out: RSAT Eff(%)
[2] = target: T1, GHSR1a receptor (Homo sapiens, UniProt Q92847); assay: 125I-Ghrelin binding assay; conditions: Binding pKi, displacement of 125I-ghrelin (0.053 nM), membranes of HEK293 cells transfected with GHSR1a; Cheng-Prussoff; '—' not defined
T1 construct: expressed in transfected cells; host or cells: HEK293 (membranes)
T1 sequence (Q92847 whole entry): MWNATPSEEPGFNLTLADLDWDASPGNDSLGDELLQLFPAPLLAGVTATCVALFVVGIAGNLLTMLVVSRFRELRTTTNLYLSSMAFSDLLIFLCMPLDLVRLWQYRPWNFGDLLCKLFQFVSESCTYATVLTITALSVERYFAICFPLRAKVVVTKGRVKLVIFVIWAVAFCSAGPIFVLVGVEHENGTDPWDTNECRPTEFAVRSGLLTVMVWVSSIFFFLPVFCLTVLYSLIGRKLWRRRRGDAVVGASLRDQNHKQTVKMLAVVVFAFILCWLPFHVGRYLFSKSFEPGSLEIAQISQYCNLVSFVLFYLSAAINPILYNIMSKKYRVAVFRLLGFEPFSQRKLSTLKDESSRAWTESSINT
Description: Plasmid DNA containing the GHSR1a receptor (12.5 ug/dish) in 0.675 ml DMEM was transfected into the cells by mixing with 180 ul PolyFect, 15 min later mixing in 2.25 ml 10% CS/DMEM, and transferring the mixture into the dish. At 16-18 h post transfection, medium was replaced with 25 ml fresh 10% FCS/1% PSG/DMEM to each dish for another 18-20 h. At approximately 48 hours post-transfection, cells were harvested in ice-cold membrane buffer (20 mM HEPES, 6 mM MgCl2, 1 mM EDTA, pH to 7.2) using a cell scraper, and pelleted by centrifugation.
Pelleted cells were added to a nitrogen cavitation chamber and 900 bar of pressure applied for 30 min. The pressure was slowly released the cavitated cells collected in 50 ml falcon tubes. The tubes were centrifuged at 1000 rpm, 4° C. for 10 min, and the supernatant collected. This centrifugation and collection was repeated two more times until the supernatant was free of precipitate (membranes are still in suspension). The supernatant was poured into a 50 ml centrifuge tube and centrifuged at 10.000 rpm, 4° C. for 20 min. The supernatant was discarded and the pellet re-suspended in 750 μl membrane binding buffer using a chilled 1 ml syringe with 25G5/8 needle to re-suspend membranes. The protein concentration was determined using the BioRad Protein Assay Dye Reagent according to the manufacturers instructions. The protein concentration was adjusted to 5 mg/ml and aliquots snap-frozed and stored at −80 C until use.
Membranes were thawed rapidly; diluted with binding buffer (25 mM Hepes+5 mM MgCl2, 1 mM CaCl2, 2.5 mM EDTA and 0.2% BSA) to a protein concentration of 0.8 ug/30 ul and placed on ice. 96-well plates (U-bottom wells) were prepared with serial dilutions (8 doses, 40 ul/w) of the test compounds. Membranes (30 uL/well) were then added, and incubated with test ligands for 30 min at room temperature with shaking. […] Binding was terminated by filtration through GF/B filters (presoaked with 0.1% polyethylenimine) with a Brandel 96-well harvester. The filters were washed with ice-cold binding buffer (150 ml/plate) and allowed to air-dry for 30 min. 50 ul MicroScient-20 cocktail was added to each dried well, the plates were sealed, and counted for 2 min/well using a TopCount scintillation counter (Packard).

Sequence of Ghrelin receptor (Q92847 whole entry): as above

| Structure (SMILES) | IC50 [1] | Emax [1] | Ki [2] | Emax ([1]; percent inhibition at saturating ligand, normalized to reference ligand Substance P analog = 100%) |
| --- | --- | --- | --- | --- |
| COc1cccc2c(C(=O)NCc3cccc(C)c3)cn(CCCN3CCN(CCOc4ccccc4)CC3)c12 | 0.02 µM | 89% | 0.00794 µM | – |
| COc1cccc2c(C(=O)NCC(C)C)cn(CCCN3CCCN(Cc4ccc(F)cc4)CC3)c12 | 0.0251 µM | 118% | 0.1 µM | – |
| COc1cccc2c(C(=O)NCc3cccc(C)c3)cn(CCCN3CCN(Cc4ccc(Cl)cc4Cl)CC3)c12 | 0.0251 µM | 110% | 1 µM | – |
| COc1cccc2c(C(=O)Cc3ccccc3)cn(CCCN3CCC(CCOc4ccc(Cl)cc4)CC3)c12 | 0.0251 µM | 121% | 0.251 µM | – |
| CCCCCC1CC2CCC(C1)N2CCCn1cc(C(C)=O)c2ccccc21 (stereo not drawn) | 0.0316 µM | 104% | 1.58 µM | – |
| COc1cccc2c(C(=O)NCc3cccc(Cl)c3)cn(CCCN3C4CCC3CC(Oc3ccc(F)cc3)C4)c12 (stereo not drawn) | 0.0398 µM | 152% | 0.158 µM | – |
| COc1ccc2[nH]c3c(c2c1)CCN(CCCn1cc(C(C)=O)c2cccc(OC)c21)C3 | 0.0501 µM | – | 1 µM | 123% |
| COc1cccc2c(C(C)=O)cn(CCCN3C4CCC3CC(OCC3CC3)C4)c12 (stereo not drawn) | 0.0501 µM | 113% | 1.58 µM | – |
| COc1cccc2c(C(=O)C3CC3)cn(CCCN3CCC(Oc4ccccc4Cl)CC3)c12 | 0.0501 µM | 102% | 3.16 µM | – |
| COc1cccc2c(C(=O)NCc3cccc(Cl)c3)cn(CCCN3CCC(Oc4ccc(Cl)cc4)CC3)c12 | 0.0501 µM | 123% | 0.631 µM | – |
| CCCCC[C@H]1C[C@H]2CC[C@@H](C1)N2CCCn1cc(C(=O)NCc2cccc(Cl)c2)c2cccc(OC)c21 | 0.0501 µM | 123% | 0.2 µM | – |
| COc1cccc2c(C(=O)NCc3cccc(Cl)c3)cn(CCCN3[C@@H]4CC[C@H]3C[C@@H](CC(=O)c3ccccc3)C4)c12 | 0.0501 µM | 111% | 0.0631 µM | – |
| COc1cccc2c(C(=O)NCc3cccc(Cl)c3)cn(CCCN3CCN(CCOc4ccccc4)CC3)c12 | 0.0794 µM | 101% | 0.00631 µM | – |
| COc1cccc2c(C(=O)NCc3cccc(C)c3)cn(CCCN3CCC(c4nc(-c5cccnc5)no4)CC3)c12 | 0.0794 µM | 97% | 0.158 µM | – |
| COc1cccc2c(C(=O)NCc3cccc(Cl)c3)cn(CCCN3CCC(c4nc5ccccc5s4)CC3)c12 | 0.0794 µM | 112% | 0.251 µM | – |
| COc1cccc2c(C(=O)NCc3cccc(Cl)c3)cn(CCCN3C4CCC3CC(CC(=O)c3ccccc3)C4)c12 (stereo not drawn) | 0.0794 µM | 104% | 0.2 µM | – |
| COc1cccc2c(C(=O)NCC(C)C)cn(CCCN3CCCN(CCc4ccccc4)CC3)c12 | 0.1 µM | 114% | 0.794 µM | – |
| CCCCC[C@H]1C[C@H]2CC[C@@H](C1)N2CCCn1cc(C(C)=O)c2ccccc21 | 0.1 µM | 118% | 2.51 µM | – |
| CCCOC1CCN(CCCn2cc(C(=O)CC)c3cc(Br)ccc32)CC1 | 0.158 µM | 90% | 10 µM | – |
| COc1cccc2c(C(=O)NCc3cccc(Cl)c3)cn(CCCNCCOc3ccccc3)c12 | 0.251 µM | 120% | 0.0398 µM | – |
| COc1cccc2c(C(=O)NCc3cccc(Cl)c3)cn(CCCN3CCN(CCOc4ccc(Cl)cc4)CC3)c12 | 0.251 µM | 104% | 0.0158 µM | – |
| Cc1cccc(CNC(=O)c2cn(CCCN3C4CCC3CC(CCc3ccccc3)C4)c3ccccc23)c1 (stereo not drawn) | 0.316 µM | 108% | 0.631 µM | – |
| CC(=O)c1cn(CCCN2[C@@H]3CC[C@H]2C[C@@H](Oc2ccc(Cl)cc2)C3)c2ccccc12 | 0.398 µM | 107% | 7.94 µM | – |
| COc1cccc2c(C(=O)NCc3cccc(C)c3)cn(CCCNC3Cc4ccccc4C3)c12 | 0.398 µM | 84% | 0.0794 µM | – |
| COc1cccc2c(C(=O)NCc3cccc(C)c3)cn(CCCN3CCN(CCOc4ccc(Cl)cc4)CC3)c12 | 0.501 µM | 79% | 0.126 µM | – |
